Measured values from patent US20100227859A1, “TRICYCLIC COMPOUNDS AS MATRIX METALLOPROTEINASE INHIBITORS” (priority 2007, published 2010).

What follows are compounds tested against purified human MMP-12 enzyme (Homo sapiens, UniProt P39900) (assay: MMP-12 FRET assay). Conditions: substrate 20 μM, room temperature.
Assay type: biochemical
In short: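 Initial fluorescence rate (325/395 nm) of cleavage of MCA-Pro-Leu-Gly-Leu-Dpa(DNP)-Ala-Arg, 20 μM final, was followed for 30 min at room temperature after a 30 min enzyme–compound preincubation. Buffer: 50 mM HEPES pH 7.4, 100 mM NaCl, 5 mM CaCl2, 0.005% Brij-35, with 10% final DMSO. IC50 came from a Hill-type fit of rate versus inhibitor concentration.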

purified human MMP-12 enzyme, sequence (P39900 106-470): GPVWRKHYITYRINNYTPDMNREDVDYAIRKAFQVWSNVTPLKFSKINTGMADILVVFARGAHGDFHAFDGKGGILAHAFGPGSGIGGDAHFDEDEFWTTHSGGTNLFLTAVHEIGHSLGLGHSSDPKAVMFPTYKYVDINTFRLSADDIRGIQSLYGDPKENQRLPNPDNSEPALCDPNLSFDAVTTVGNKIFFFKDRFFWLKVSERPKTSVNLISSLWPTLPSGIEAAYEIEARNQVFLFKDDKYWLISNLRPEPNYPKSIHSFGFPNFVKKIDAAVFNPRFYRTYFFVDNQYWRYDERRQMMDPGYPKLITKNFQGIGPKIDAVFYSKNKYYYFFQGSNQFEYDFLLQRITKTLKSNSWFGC

SMILES	IC50 [nM]
CC(C)[C@H](NS(=O)(=O)c1ccc2c(c1)sc1ccc(-c3ccoc3)cc12)C(=O)O [Compound 25, (S)-2-(8-(furan-3-yl)dibenzo[b,d]thiophene-3-sulfonamido)-3-methylbutanoic acid]	4.8
CC(C)[C@H](NS(=O)(=O)c1ccc2c(c1)oc1ccc(C3=NCCO3)cc12)C(=O)O [Compound 83, (S)-2-(8-(4,5-dihydrooxazol-2-yl)dibenzo[b,d]furan-3-sulfonamido)-3-methylbutanoic acid]	2.8
CC(C)[C@H](NS(=O)(=O)c1ccc2c(c1)sc1c(-c3ccsc3Cl)cccc12)C(=O)O [Compound 51, (S)-2-(6-(2-chlorothiophen-3-yl)dibenzo[b,d]thiophene-3-sulfonamido)-3-methylbutanoic acid]	> 1000
CC(C)[C@H](NS(=O)(=O)c1ccc2c(c1)oc1ccc(-c3ccc(-c4ccon4)s3)cc12)C(=O)O [Compound 216, (S)-2-(8-(5-(isoxazol-3-yl)thiophen-2-yl)dibenzo[b,d]furan-3-sulfonamido)-3-methylbutanoic acid]	4.5
CC(C)[C@H](NS(=O)(=O)c1ccc2c(c1)sc1ccc(-c3ccc(Cl)nc3)cc12)C(=O)O [Compound 63, (S)-2-(8-(6-chloropyridin-3-yl)dibenzo[b,d]thiophene-3-sulfonamido)-3-methylbutanoic acid]	33
CC(C)(C)c1nc(-c2ccc3c(c2)oc2ccc(S(=O)(=O)N[C@@H](Cc4c[nH]c5ccccc45)C(=O)O)cc23)no1 [Compound 280]	15
Cc1noc(C)c1-c1ccc2sc3cc(S(=O)(=O)N[C@H](C(=O)O)C(C)C)ccc3c2c1 [Compound 27, (S)-2-(8-(3,5-dimethylisoxazol-4-yl)dibenzo[b,d]thiophene-3-sulfonamido)-3-methylbutanoic acid]	700
CC(C)[C@H](NS(=O)(=O)c1ccc2c(c1)oc1ccc(-c3ccc(-c4nnn[nH]4)s3)cc12)C(=O)O [Compound 207, (S)-2-(8-(5-(1H-tetrazol-5-yl)thiophen-2-yl)dibenzo[b,d]furan-3-sulfonamido)-3-methylbutanoic acid]	8.4
CC(C)[C@@H](NS(=O)(=O)c1ccc2oc3cc(-c4cnn(C)c4)ccc3c2c1)C(=O)O [Compound 117, (R)-3-methyl-2-(7-(1-methyl-1H-pyrazol-4-yl)dibenzo[b,d]furan-2-sulfonamido)butanoic acid]	2.8
CC(C)[C@H](NS(=O)(=O)c1ccc2c(c1)sc1ccc(-c3ccsc3Cl)cc12)C(=O)O [Compound 52, (S)-2-(8-(2-chlorothiophen-3-yl)dibenzo[b,d]thiophene-3-sulfonamido)-3-methylbutanoic acid]	19
CC(C)Cc1nc(-c2ccc3c(c2)oc2ccc(S(=O)(=O)N[C@@H](C(=O)O)C(C)C)cc23)no1 [Compound 149, (R)-2-(7-(5-isobutyl-1,2,4-oxadiazol-3-yl)dibenzo[b,d]furan-2-sulfonamido)-3-methylbutanoic acid]	5.3
Cc1n[nH]c(C)c1-c1ccc2oc3cc(S(=O)(=O)N[C@H](C(=O)O)C(C)C)ccc3c2c1 [Compound 19, (S)-2-(8-(3,5-dimethyl-1H-pyrazol-4-yl)dibenzo[b,d]furan-3-sulfonamido)-3-methylbutanoic acid]	44
CC(C)[C@H](NS(=O)(=O)c1ccc2c(c1)sc1ccc(/C=C/C3CCCCC3)cc12)C(=O)O [Compound 58, (S,E)-2-(8-(2-cyclohexylvinyl)dibenzo[b,d]thiophene-3-sulfonamido)-3-methylbutanoic acid]	18
CC(C)[C@@H](NS(=O)(=O)c1ccc2oc3cc(-c4ccc(Cl)o4)ccc3c2c1)C(=O)O [Compound 290, (R)-2-(7-(5-chlorofuran-2-yl)dibenzo[b,d]furan-2-sulfonamido)-3-methylbutanoic acid]	4.4
CC(C)[C@H](NS(=O)(=O)c1ccc2c(c1)oc1cc(-c3nnn[nH]3)ccc12)C(=O)O [Compound 250, (S)-2-(7-(1H-tetrazol-5-yl)dibenzo[b,d]furan-3-sulfonamido)-3-methylbutanoic acid]	239
COCC#Cc1ccc2c(c1)sc1cc(S(=O)(=O)N[C@@H](C(=O)O)C(C)C)ccc12 [Compound 90, (R)-2-(7-(3-methoxyprop-1-ynyl)dibenzo[b,d]thiophene-3-sulfonamido)-3-methylbutanoic acid]	15
CC(C)[C@@H](NS(=O)(=O)c1ccc2oc3cc(-c4nc5ccc(C(F)(F)F)cc5s4)ccc3c2c1)C(=O)O [Compound 302, (R)-3-methyl-2-(7-(6-(trifluoromethyl)benzo[d]thiazol-2-yl)dibenzo[b,d]furan-2-sulfonamido)butanoic acid]	28
CC(C)(C)c1nc(-c2ccc3c(c2)oc2ccc(S(=O)(=O)NCC(=O)O)cc23)no1 [Compound 274, 2-(7-(5-tert-butyl-1,2,4-oxadiazol-3-yl)dibenzo[b,d]furan-2-sulfonamido)acetic acid]	60
CC(C)NC(=N)c1ccc2oc3cc(S(=O)(=O)N[C@H](C(=O)O)C(C)C)ccc3c2c1 [Compound 76, (S)-2-(8-(N-isopropylcarbamimidoyl)dibenzo[b,d]furan-3-sulfonamido)-3-methylbutanoic acid]	18
CC(C)[C@H](NS(=O)(=O)c1ccc2c(c1)oc1ccc(-c3occc3CN(C)C)cc12)C(=O)O [Compound 48, (S)-2-(8-(3-((dimethylamino)methyl)furan-2-yl)dibenzo[b,d]furan-3-sulfonamido)-3-methylbutanoic acid]	118
CC(C)[C@H](NS(=O)(=O)c1ccc2c(c1)oc1ccc(C(=N)NCc3ccccc3)cc12)C(=O)O [Compound 88, (S)-2-(8-(N-benzylcarbamimidoyl)dibenzo[b,d]furan-3-sulfonamido)-3-methylbutanoic acid]	47

These reach a lower IC50. Values come first.

IC50 [nM]	SMILES
2.2	CC(C)[C@@H](NS(=O)(=O)c1ccc2oc3cc(-c4nc5ccc(F)cc5s4)ccc3c2c1)C(=O)O [Compound 297, (R)-2-(7-(6-fluorobenzo[d]thiazol-2-yl)dibenzo[b,d]furan-2-sulfonamido)-3-methylbutanoic acid]
< 1.5	CC(C)[C@H](NS(=O)(=O)c1ccc2c(c1)oc1ccc(C3CCCC3)cc12)C(=O)O [Compound 71, (S)-2-(8-cyclopentyldibenzo[b,d]furan-3-sulfonamido)-3-methylbutanoic acid]
< 1.5	COc1ccc(-c2ccc3oc4cc(S(=O)(=O)N[C@H](C(=O)O)C(C)C)ccc4c3c2)cn1 [Compound 10, (S)-2-(8-(6-methoxypyridin-3-yl)dibenzo[b,d]furan-3-sulfonamido)-3-methylbutanoic acid]
< 1.5	CCc1ccc(-c2ccc3oc4cc(S(=O)(=O)N[C@H](C(=O)O)C(C)C)ccc4c3c2)s1 [Compound 196, (S)-2-(8-(5-ethylthiophen-2-yl)dibenzo[b,d]furan-3-sulfonamido)-3-methylbutanoic acid]
< 1.5	CC(C)[C@H](NS(=O)(=O)c1ccc2c(c1)oc1ccc(-c3nc4ccc(F)cc4s3)cc12)C(=O)O [Compound 209, (S)-2-(8-(6-fluorobenzo[d]thiazol-2-yl)dibenzo[b,d]furan-3-sulfonamido)-3-methylbutanoic acid]
1.7	CC(C)[C@H](NS(=O)(=O)c1ccc2c(c1)oc1ccc(-c3nc4ccc(OC(F)(F)F)cc4s3)cc12)C(=O)O [Compound 221, (S)-3-methyl-2-(8-(6-(trifluoromethoxy)benzo[d]thiazol-2-yl)dibenzo[b,d]furan-3-sulfonamido)butanoic acid]
< 1.5	C/C=C/c1ccc2oc3cc(S(=O)(=O)N[C@H](C(=O)O)C(C)C)ccc3c2c1 [Compound 66, (S,E)-3-methyl-2-(8-(prop-1-enyl)dibenzo[b,d]furan-3-sulfonamido)butanoic acid]
< 1.5	CC(C)[C@H](NS(=O)(=O)c1ccc2c(c1)oc1cc(-c3cccs3)ccc12)C(=O)O [Compound 81, (S)-3-methyl-2-(7-(thiophen-2-yl)dibenzo[b,d]furan-3-sulfonamido)butanoic acid]
< 1.5	CC(C)[C@@H](NS(=O)(=O)c1ccc2oc3cc(-c4noc(C5CC5)n4)ccc3c2c1)C(=O)O [Compound 147, (R)-2-(7-(5-cyclopropyl-1,2,4-oxadiazol-3-yl)dibenzo[b,d]furan-2-sulfonamido)-3-methylbutanoic acid]
< 1.5	CC(C)[C@H](NS(=O)(=O)c1ccc2c(c1)oc1ccc(-c3noc(-c4ccc(F)cc4F)n3)cc12)C(=O)O [Compound 269, (S)-2-(8-(5-(2,4-difluorophenyl)-1,2,4-oxadiazol-3-yl)dibenzo[b,d]furan-3-sulfonamido)-3-methylbutanoic acid]
< 1.5	CC(C)[C@H](NS(=O)(=O)c1ccc2c(c1)oc1ccc(-c3noc(-c4ccc(Cl)cc4Cl)n3)cc12)C(=O)O [Compound 270, (S)-2-(8-(5-(2,4-dichlorophenyl)-1,2,4-oxadiazol-3-yl)dibenzo[b,d]furan-3-sulfonamido)-3-methylbutanoic acid]
< 1.5	CC(C)[C@H](NS(=O)(=O)c1ccc2c(c1)sc1cc(-c3ccco3)ccc12)C(=O)O [Compound 193, (S)-2-(7-(furan-2-yl)dibenzo[b,d]thiophene-3-sulfonamido)-3-methylbutanoic acid]
< 1.5	CC(C)[C@H](NS(=O)(=O)c1ccc2c(c1)oc1ccc(-c3nc4c(s3)CCCC4)cc12)C(=O)O [Compound 307, (S)-3-methyl-2-(8-(4,5,6,7-tetrahydrobenzo[d]thiazol-2-yl)dibenzo[b,d]furan-3-sulfonamido)butanoic acid]
< 1.5	Cc1cnc(-c2ccc3c(c2)oc2cc(S(=O)(=O)N[C@H](C(=O)O)C(C)C)ccc23)s1 [Compound 234, (S)-3-methyl-2-(7-(5-methylthiazol-2-yl)dibenzo[b,d]furan-3-sulfonamido)butanoic acid]
